# Results: article PMC10218596 (International Journal of Molecular Sciences, 2023)
# Where a SMILES comes first, the peptide text is derived from it. Bridges are numbered along the chain shown (N, C = ends).
# Assays:
# [1] = tested on: h[α6Q14R/α3]β4; assay type: cell-based, human
# [2] = biological target: T1, h[α6Q14R/α3]β4 (Homo sapiens, UniProt P30926+P32297+Q15825, Q47R); assay type: cell-based
# T1 construct: formed by splicing the N-terminal extracellular domain of the α6 subunit with the α3 subunit; human nAChR α3 subunit (CHRNA3); expressed in transfected cells; host or cells: Xenopus laevis oocytes injected with cRNA (plasmids from the University of Utah)
# [3] = biological target: T2, h[α6R63C/α3]β4 (Homo sapiens, UniProt P30926+P32297+Q15825, R96C); assay type: cell-based
# T2 construct: formed by splicing the N-terminal extracellular domain of the α6 subunit with the α3 subunit; human nAChR α3 subunit (CHRNA3); expressed in transfected cells; host or cells: Xenopus laevis oocytes injected with cRNA (plasmids from the University of Utah)
# [4] = tested on: h[α6R63C/α3]β4; assay type: cell-based, human
# [5] = biological target: T3, h[α6K7T/α3]β4 (Homo sapiens, UniProt P30926+P32297+Q15825, K40T); assay type: cell-based
# T3 construct: formed by splicing the N-terminal extracellular domain of the α6 subunit with the α3 subunit; human nAChR α3 subunit (CHRNA3); expressed in transfected cells; host or cells: Xenopus laevis oocytes injected with cRNA (plasmids from the University of Utah)
# [6] = biological target: T4, h[α6I56V/α3]β4 (Homo sapiens, UniProt P30926+P32297+Q15825, I89V); assay type: cell-based
# T4 construct: formed by splicing the N-terminal extracellular domain of the α6 subunit with the α3 subunit; human nAChR α3 subunit (CHRNA3); expressed in transfected cells; host or cells: Xenopus laevis oocytes injected with cRNA (plasmids from the University of Utah)
# T4 sequence (P30926 whole entry, looked up, stated change not applied, the tested form may be a part): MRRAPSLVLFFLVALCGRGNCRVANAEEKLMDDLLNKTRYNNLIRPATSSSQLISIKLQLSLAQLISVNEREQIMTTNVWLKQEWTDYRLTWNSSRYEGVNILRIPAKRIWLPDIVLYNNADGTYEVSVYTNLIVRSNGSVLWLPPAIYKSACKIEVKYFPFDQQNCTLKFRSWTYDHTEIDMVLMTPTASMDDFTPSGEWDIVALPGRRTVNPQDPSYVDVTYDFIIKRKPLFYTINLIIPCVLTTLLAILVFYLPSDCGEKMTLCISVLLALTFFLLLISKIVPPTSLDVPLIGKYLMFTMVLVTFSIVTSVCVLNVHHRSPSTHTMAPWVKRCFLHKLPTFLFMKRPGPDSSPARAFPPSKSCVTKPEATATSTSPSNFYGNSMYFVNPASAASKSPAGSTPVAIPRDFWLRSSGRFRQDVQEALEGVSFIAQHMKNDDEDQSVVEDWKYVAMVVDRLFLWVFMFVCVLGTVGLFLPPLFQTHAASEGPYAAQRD
# T4 sequence (P32297 whole entry, looked up, stated change not applied, the tested form may be a part): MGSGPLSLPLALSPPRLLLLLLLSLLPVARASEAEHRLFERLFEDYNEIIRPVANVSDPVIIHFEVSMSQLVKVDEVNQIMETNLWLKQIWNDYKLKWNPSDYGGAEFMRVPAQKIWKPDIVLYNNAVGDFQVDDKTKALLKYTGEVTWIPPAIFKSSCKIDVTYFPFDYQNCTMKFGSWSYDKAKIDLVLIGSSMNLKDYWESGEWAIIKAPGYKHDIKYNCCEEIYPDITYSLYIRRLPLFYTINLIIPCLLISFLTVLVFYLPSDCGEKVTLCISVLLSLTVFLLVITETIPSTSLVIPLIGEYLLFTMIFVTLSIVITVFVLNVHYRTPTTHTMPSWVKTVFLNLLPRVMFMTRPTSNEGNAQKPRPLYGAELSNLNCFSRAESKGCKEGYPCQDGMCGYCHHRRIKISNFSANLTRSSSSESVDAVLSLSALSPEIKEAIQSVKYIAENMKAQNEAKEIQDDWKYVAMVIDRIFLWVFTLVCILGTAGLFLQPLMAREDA
# T4 sequence (Q15825 whole entry, looked up, stated change not applied, the tested form may be a part): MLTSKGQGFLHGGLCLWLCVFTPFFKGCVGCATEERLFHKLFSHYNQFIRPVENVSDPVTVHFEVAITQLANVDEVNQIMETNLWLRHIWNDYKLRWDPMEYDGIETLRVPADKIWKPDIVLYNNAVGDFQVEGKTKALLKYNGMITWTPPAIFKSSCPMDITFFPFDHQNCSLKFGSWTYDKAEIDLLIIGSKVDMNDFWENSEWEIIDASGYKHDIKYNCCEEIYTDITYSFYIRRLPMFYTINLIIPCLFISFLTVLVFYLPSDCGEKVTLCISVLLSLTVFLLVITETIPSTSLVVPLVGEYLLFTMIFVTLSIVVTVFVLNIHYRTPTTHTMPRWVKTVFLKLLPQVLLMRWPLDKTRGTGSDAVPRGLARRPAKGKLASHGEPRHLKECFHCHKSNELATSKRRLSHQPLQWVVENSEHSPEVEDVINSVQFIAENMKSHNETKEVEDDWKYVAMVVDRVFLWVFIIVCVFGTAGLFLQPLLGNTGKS
# [7] = biological target: T5, hα6/α3β4L107V (Homo sapiens, UniProt P30926+Q15825, L133V); test: cell-based
# T5 construct: splicing the N-terminal extracellular domain of the α6 subunit with the α3 subunit; mutant made by PCR mutagenesis; host or cells: Xenopus laevis oocytes injected with cRNA
# T5 sequence (Q15825 26-239 limits assumed): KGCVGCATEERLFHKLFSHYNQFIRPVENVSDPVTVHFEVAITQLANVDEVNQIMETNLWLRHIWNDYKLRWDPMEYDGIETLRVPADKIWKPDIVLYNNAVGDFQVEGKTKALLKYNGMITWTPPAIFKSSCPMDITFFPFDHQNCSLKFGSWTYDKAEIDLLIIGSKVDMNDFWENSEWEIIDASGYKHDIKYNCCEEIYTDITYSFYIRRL
# T5 sequence (P30926 22-498 L133V): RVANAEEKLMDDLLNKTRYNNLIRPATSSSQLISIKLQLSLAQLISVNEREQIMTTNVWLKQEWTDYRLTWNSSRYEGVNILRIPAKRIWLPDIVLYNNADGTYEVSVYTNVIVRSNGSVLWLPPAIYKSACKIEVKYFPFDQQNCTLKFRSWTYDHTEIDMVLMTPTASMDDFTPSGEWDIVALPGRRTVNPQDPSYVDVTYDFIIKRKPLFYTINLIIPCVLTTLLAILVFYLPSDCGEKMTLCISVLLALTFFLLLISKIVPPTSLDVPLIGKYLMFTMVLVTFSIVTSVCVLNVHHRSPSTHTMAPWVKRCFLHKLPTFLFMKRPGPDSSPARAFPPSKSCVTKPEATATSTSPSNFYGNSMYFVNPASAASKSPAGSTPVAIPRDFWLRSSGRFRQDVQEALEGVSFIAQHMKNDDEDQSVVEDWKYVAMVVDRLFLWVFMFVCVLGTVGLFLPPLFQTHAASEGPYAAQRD
# [8] = biological target: T6, hα6/α3β4V53I (Homo sapiens, UniProt P30926+Q15825, V79I); assay type: cell-based
# T6 construct: splicing the N-terminal extracellular domain of the α6 subunit with the α3 subunit; mutant made by PCR mutagenesis; host or cells: Xenopus laevis oocytes injected with cRNA
# [9] = biological target: T7, hα6/α3β4K31R (Homo sapiens, UniProt P30926+Q15825, K57R); assay type: cell-based
# T7 construct: splicing the N-terminal extracellular domain of the α6 subunit with the α3 subunit; mutant made by PCR mutagenesis; host or cells: Xenopus laevis oocytes injected with cRNA
# [10] = biological target: T8, h[α6I176V/α3]β4 (Homo sapiens, UniProt P30926+P32297+Q15825, I209V); assay type: cell-based
# T8 construct: formed by splicing the N-terminal extracellular domain of the α6 subunit with the α3 subunit; fusion partner: remainder of the human α3 subunit (CHRNA3); expressed in transfected cells; host or cells: Xenopus laevis oocytes injected with cRNA
# [11] = biological target: T9, hα6/α3β4T161S (Homo sapiens, UniProt P30926+Q15825, T187S); assay type: cell-based
# T9 construct: formed by splicing the N-terminal extracellular domain of the α6 subunit with the α3 subunit; human nAChR α3 subunit (CHRNA3); expressed in transfected cells; host or cells: Xenopus laevis oocytes injected with cRNA (plasmids from the University of Utah)
# [12] = biological target: T10, h[α6R3Q/α3]β4 (Homo sapiens, UniProt P30926+P32297+Q15825, R36Q); assay type: cell-based
# T10 construct: formed by splicing the N-terminal extracellular domain of the α6 subunit with the α3 subunit; human nAChR α3 subunit (CHRNA3); expressed in transfected cells; host or cells: Xenopus laevis oocytes injected with cRNA (plasmids from the University of Utah)
# [13] = biological target: T11, hα6/α3β4A37S (Homo sapiens, UniProt P30926+Q15825, A63S); assay type: cell-based
# T11 construct: splicing the N-terminal extracellular domain of the α6 subunit with the α3 subunit; mutant made by PCR mutagenesis; host or cells: Xenopus laevis oocytes injected with cRNA
# T11 sequence (Q15825 26-239 limits assumed): as the sequence (Q15825 26-239 limits assumed) above
# T11 sequence (P30926 22-498 A63S): as the sequence (P30926 22-498 L133V) above, with A42S, V112L counted along it
# [14] = tested on: rat α6/α3β2β3 nAChR; settings: cited from earlier work
# [15] = biological target: T12, h[α6N110D/α3]β4 (Homo sapiens, UniProt P30926+P32297+Q15825, N143D); assay type: cell-based
# T12 construct: formed by splicing the N-terminal extracellular domain of the α6 subunit with the α3 subunit; fusion partner: remainder of the human α3 subunit (CHRNA3); expressed in transfected cells; host or cells: Xenopus laevis oocytes injected with cRNA
# [16] = biological target: T13, hα6/α3β4R70C (Homo sapiens, UniProt P30926+Q15825, R96C); assay type: cell-based
# T13 construct: splicing the N-terminal extracellular domain of the α6 subunit with the α3 subunit; mutant made by PCR mutagenesis; host or cells: Xenopus laevis oocytes injected with cRNA
# [17] = tested on: h[α6K81N/α3]β4; assay type: cell-based, human
# [18] = biological target: T14, h[α6K81N/α3]β4 (Homo sapiens, UniProt P30926+P32297+Q15825, K114N); assay type: cell-based
# T14 construct: formed by splicing the N-terminal extracellular domain of the α6 subunit with the α3 subunit; fusion partner: remainder of the human α3 subunit (CHRNA3); expressed in transfected cells; host or cells: Xenopus laevis oocytes injected with cRNA
# [19] = biological target: T15, hα6/α3β4Y133H (Homo sapiens, UniProt P30926+Q15825, Y159H); assay type: cell-based
# T15 construct: splicing the N-terminal extracellular domain of the α6 subunit with the α3 subunit; mutant made by PCR mutagenesis; host or cells: Xenopus laevis oocytes injected with cRNA
# [20] = tested on: h[α6S10A/α3]β4; assay type: cell-based, human
# [21] = biological target: T16, h[α6S10A/α3]β4 (Homo sapiens, UniProt P30926+P32297+Q15825, S43A); assay type: cell-based
# T16 construct: formed by splicing the N-terminal extracellular domain of the α6 subunit with the α3 subunit; human nAChR α3 subunit (CHRNA3); expressed in transfected cells; host or cells: Xenopus laevis oocytes injected with cRNA (plasmids from the University of Utah)
# [22] = biological target: T17, h[α6K61R/α3]β4 (Homo sapiens, UniProt P30926+P32297+Q15825, K94R); test: cell-based
# T17 construct: formed by splicing the N-terminal extracellular domain of the α6 subunit with the α3 subunit; human nAChR α3 subunit (CHRNA3); expressed in transfected cells; host or cells: Xenopus laevis oocytes injected with cRNA (plasmids from the University of Utah)
# T17 sequence (Q15825+P32297 fused with the stated changes): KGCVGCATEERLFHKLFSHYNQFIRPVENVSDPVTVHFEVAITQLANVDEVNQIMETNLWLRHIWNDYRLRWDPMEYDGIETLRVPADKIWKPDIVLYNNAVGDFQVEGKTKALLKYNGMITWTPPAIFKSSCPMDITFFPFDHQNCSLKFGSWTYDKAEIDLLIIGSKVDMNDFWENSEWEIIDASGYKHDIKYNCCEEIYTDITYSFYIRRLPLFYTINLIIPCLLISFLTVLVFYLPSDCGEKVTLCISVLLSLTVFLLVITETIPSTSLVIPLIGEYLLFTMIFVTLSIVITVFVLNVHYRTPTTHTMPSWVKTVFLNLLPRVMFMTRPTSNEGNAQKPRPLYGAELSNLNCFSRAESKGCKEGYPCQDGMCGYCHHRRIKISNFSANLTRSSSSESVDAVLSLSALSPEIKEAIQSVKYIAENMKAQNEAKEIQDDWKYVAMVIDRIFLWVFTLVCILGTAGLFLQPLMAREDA
# T17 sequence (P30926 22-498): as the sequence (P30926 22-498 L133V) above, with V112L counted along it
# [23] = biological target: T18, h[α6V32L, K61R/α3]β4L107V,V115I (Homo sapiens, UniProt P30926+P32297+Q15825, K94R/L133V/V141I/V65L); test: cell-based
# T18 construct: formed by splicing the N-terminal extracellular domain of the α6 subunit with the α3 subunit; fusion partner: remainder of the human α3 subunit (CHRNA3); expressed in transfected cells; host or cells: Xenopus laevis oocytes injected with cRNA
# T18 sequence (Q15825+P32297 fused with the stated changes): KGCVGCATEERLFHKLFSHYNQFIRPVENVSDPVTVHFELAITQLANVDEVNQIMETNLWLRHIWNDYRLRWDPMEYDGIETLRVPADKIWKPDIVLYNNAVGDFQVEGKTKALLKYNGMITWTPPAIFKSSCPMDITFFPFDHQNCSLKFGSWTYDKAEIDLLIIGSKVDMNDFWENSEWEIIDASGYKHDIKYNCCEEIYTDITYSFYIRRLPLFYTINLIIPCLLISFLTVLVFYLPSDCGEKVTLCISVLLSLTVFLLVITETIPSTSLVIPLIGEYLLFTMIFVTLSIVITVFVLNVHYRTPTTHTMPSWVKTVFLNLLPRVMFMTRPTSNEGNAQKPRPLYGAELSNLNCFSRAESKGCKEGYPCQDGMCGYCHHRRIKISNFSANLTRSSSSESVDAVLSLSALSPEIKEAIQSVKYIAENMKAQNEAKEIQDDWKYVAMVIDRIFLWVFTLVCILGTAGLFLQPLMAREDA
# T18 sequence (P30926 22-498 L133V/V141I): as the sequence (P30926 22-498 L133V) above, with V120I counted along it
# [24] = read-out: inhibition of the current response to 100 μM ACh
compound,measurement,setting,value
"CC(C)C[C@@H]1NC(=O)[C@H](CC(=O)O)NC(=O)[C@@H]2CCCN2C(=O)[C@H](Cc2c[nH]cn2)NC(=O)[C@H](CCCCN)NC(=O)[C@H](CC(N)=O)NC(=O)[C@H](CCCNC(=N)N)NC(=O)[C@@H]2CSSC[C@H](NC(=O)CN)C(=O)N[C@@H](CSSC[C@@H](C(N)=O)NC1=O)C(=O)N[C@@H](CO)C(=O)N[C@@H](CC(=O)O)C(=O)N1CCC[C@H]1C(=O)N1CCC[C@H]1C(=O)N2 [TxIB] (H-GCCSDPPCRNKHPDLC-NH2; disulfide 2-8, 3-16)",Ratio (change in TxIB IC50 relative to hα6/α3β4),[1],1
same,Hill Slope,[2],0.9 (0.7–1.2)
same,Hill Slope,[3],0.9 (0. 8–1.1)
same,Ratio (change in TxIB IC50 relative to hα6/α3β4),[4],0.9
same,Hill Slope,[5],0.8 (0.6–0.9)
same,Ratio (change in TxIB IC50 relative to hα6/α3β4),[5],1.4
same,Hill Slope,[6],1.0 (0.9–1.2)
same,Ratio (change in TxIB IC50 relative to hα6/α3β4),[6],0.9
same,Hill Slope,[7],0.8 (0.7–0.9)
same,Ratio (change in TxIB IC50 relative to hα6/α3β4),[7],3.3
same,activity at 10 µM,[7]; [24],21.7 ± 4.29%
same,Hill Slope,[8],0.8 (0.7–0.9)
same,Ratio (change in TxIB IC50 relative to hα6/α3β4),[8],1.1
same,Hill Slope,[9],0.8 (0.7–0.9)
same,Ratio (change in TxIB IC50 relative to hα6/α3β4),[9],2.2
same,Hill Slope,[10],0.8 (0.7–0.9)
same,Ratio (change in TxIB IC50 relative to hα6/α3β4),[10],0.8
same,Hill Slope,[11],0.8 (0.6–0.9)
same,Ratio (change in TxIB IC50 relative to hα6/α3β4),[11],1.8
same,Hill Slope,[12],0.9 (0.8–1.1)
same,Ratio (change in TxIB IC50 relative to hα6/α3β4),[12],0.9
same,Hill Slope,[13],0.9 (0.8–1.0)
same,Ratio (change in TxIB IC50 relative to hα6/α3β4),[13],1.1
same,IC50,[14],0.028 µM
same,Hill Slope,[15],0.9 (0.8–1.0)
same,Ratio (change in TxIB IC50 relative to hα6/α3β4),[15],1.6
same,Hill Slope,[16],0.8 (0.7–1.0)
same,Ratio (change in TxIB IC50 relative to hα6/α3β4),[16],0.9
same,Ratio (change in TxIB IC50 relative to hα6/α3β4),[17],1.2
same,Hill Slope,[18],0.8 (0.7–0.9)
same,Hill Slope,[19],0.8 (0.7–1.0)
same,Ratio (change in TxIB IC50 relative to hα6/α3β4),[19],1.3
same,Ratio (change in TxIB IC50 relative to hα6/α3β4),[20],1.2
same,Hill Slope,[21],0.8 (0.7–0.9)
same,Hill Slope,[22],0.8 (0.7–0.9)
same,Ratio (change in TxIB IC50 relative to hα6/α3β4),[22],3.4
same,activity at 10 µM,[22]; [24],22.1 ± 4.7%
same,Hill Slope,[23],0.8 (0.6–0.9)
same,Ratio (change in TxIB IC50 relative to hα6/α3β4),[23],42
same,time to full restoration of currents blocked by TxIB,[23],≤ 1 min
same,activity at 10 µM,[23]; [24],60.2 ± 8.66%
